Results: patent US8106092B2, “Treatment of solid cancers” (priority 2004, dated 2012)

Key:
[1] = system: SIINFEKL [SEQ ID NO:2]-specific CD8^+ T-cells; assay: SIINFEKL-specific CD8+ T-cells by IFNγ ELISPOT after i.t. PEP005 treatment of Lewis lung-OVA; type: in vivo, C57BL/6 mice
Protocol: FIGS. 4A to D are graphical representations showing protection against secondary tumors following cure of primary tumors with PEP005. (A) C57BL/6 mice received 5×10^5 Lewis lung-OVA s.c. on the back on day less 7 (d−7). When these primary tumors had reached an average 13.6 mm^2±1.8 SE (range 10-25 mm^2) on d0 they were treated once with 16 μg of PEP005 delivered i.t. In eight mice these primary tumors were cured, and these mice received 5×10^5 Lewis lung-OVA s.c. on d4 on the opposite flank from the primary tumors. The emergence of these secondary tumors was monitored over time (PEP005 cured). In a parallel group of animals (n=5) PEP005 treatment regressed the primary tumors, but after 11-13 days the primary tumors re-emerged. These animals also received secondary tumors as above and their emergence was again monitored over time (PEP005 regressed). Two control groups were included. One group (n=6) received no primary tumors, but was treated s.c. with PEP005 and received secondary tumors on the opposite flank (white triangles, PEP005 s.c.). […] Secondary B16-OVA (10^5) were injected i.v. on d6 and animals were sacrificed on d27 and lung metastases counted.
Mouse splenocytes were analyzed by ex vivo IFNγ ELISPOT essentially as described previously (Le et al, Vaccine 19:4669-4675, 2001), but using MultiScreen-IP plates (Millipore) and 25 IU/ml of recombinant human IL-2 (Cetus).

[2] = system: B16 tumors; assay: Example 3: topical PEP005 with DC+IL-2 and M720/B16, larger primary B16 tumors; type: in vivo, C57BL/6 mice; conditions: topical dose printed 15 μg/ml, tumors 26-30 mm^2
Description: To determine whether PEP005 treatment could synergize with (i) vaccine-induced anti-cancer CD4 T-cells/antibodies and/or (ii) vaccine-induced anti-cancer CD8^+ T-cells, topical PEP005 treatment was combined with vaccination using (i) B16 lysate emulsified in Montanide ISA 720 adjuvant (M720/B16) and (ii) DC2.4 cells sensitized with TRP-2 peptide, SVYDFFVWL [SEQ ID NO:1] and activated with LPS (DC). The latter group also received IL-2 to maintain the vaccine induced T-cells. […] This experiment sought to determine whether improvements in B16 cure rate could be achieved when sub-optimal topical PEP005 treatment was combined with other immune-based therapies. This experiment differed from that described in Example 2 in that treatment was initiated when tumors were slightly larger and the M720/B16 vaccine was given d0 not d−5, and the dose of B16 cells in that vaccine was increased 10-fold.
B16 tumors were injected 2×10^6 s.c. into C57BL/6 mice on d−3 and on dO when the tumors had reached an average size of 26-30 mm^2, the groups of animal received the following treatments. […]
PEP005+DCAL-2: PEP005 (as above) plus DC2.4 cells which were (i) sensitized with TRP-2 peptide, SVYDFFVWL [SEQ ID NO:1] […]

What does the source list for `C/C=C(/C)C(=O)O[C@H]1C(C)=C[C@]23C(=O)[C@@H](C=C(CO)[C@@H](O)[C@]12O)[C@H]1[C@@H](C[C@H]3C)C1(C)C` [PEP005, ingenol-3-angelate]?
number of SIINFEKL-specific CD8+ T-cells vs untreated control animals ([1]; PEP005 injected s.c. rather than into a tumor): failed to increase; SIINFEKL-specific CD8+ T-cells vs control animals ([1]; primary tumors cured by PEP005, p=0.008 unpaired t-Test): significantly more; cure of B16 tumors by topical PEP005 alone [2]: did not cure most B16 tumors
